Tested on: Human erythropoietin (hEPO) levels in sera
Assay: Delivery of hEPO mRNA by intramuscular administration of lipid nanoparticles; serum hEPO by ELISA
Assay type: in vivo, Mouse (female BALB/cJ)
Details: single IM injection of 0.1 μg hEPO mRNA LNP in 30 μL into right gastrocnemius, female BALB/cJ mice, cationic lipids in formulation 1, MC3 in formulation 2; for hEPO 6 Hr (ng/mL) Mean: 6 hours post dose; for hEPO 24 Hr (ng/mL) Mean: 24 hours post dose
Protocol: Lipid nanoparticle formulations of Table 3 were prepared by Process A. All of the lipid nanoparticle formulations comprised hEPO mRNA and the different lipids (Cationic Lipid: DMG-PEG2000: Cholesterol: DOPE/DSPC) in the mol % ratios specified in Table 3.
The cationic lipids of the present invention were evaluated with lipid nanoparticle formulation 1. MC3 was evaluated with lipid nanoparticle formulation 2, which is a typical MC3 formulation.
In summary, lipid screening studies were conducted with female BALB/cJ mice 6-8 weeks of age. Mice were dosed with 0.1 μg in 30 μL of LNPs by a single intramuscular (IM) injection into the gastrocnemius leg muscle. Blood samples were taken 6 and 24 hours post injection and hEPO levels were measured in the blood serum of the mice using an ELISA assay according to the manufacture's protocol. WO2022/099003 A1 also describes an in vivo assay for intramuscular administration (e.g. on page 46, paragraph [00206]).
Treatment Regimen: On Day 1, animals from Groups 1-13 were dosed via intramuscular injection while under light isoflurane anesthesia according to the study design table above. Animals in Groups 1-13 were injected with EPO mRNA LNPs in the right leg only. Group 1 animals received MC3 control. The cationic lipid MC3 is the current gold standard for in vivo delivery of e.g. siRNA (see WO2010/144740).
Interim Sample Collections: Interim whole blood (^˜50 μL) was collected by tail snip or saphenous vein at 6 and 24 hours post dose administration (±5%). Blood samples were collected into serum separator tubes, allowed to clot at room temperature for at least 10 minutes, centrifuged at ambient temperature at minimum 1000 g for 10 minutes and the serum was extracted. All serum samples were stored at nominally −70° C. until analysis hEPO by the Testing Facility. The results of the EPO analysis were included in the Data Submission.
Terminal Blood Collections: Whole blood was collected via cardiac puncture into serum separator tube, allowed to clot at room temperature for at least 10 minutes, centrifuged at ambient temperature at minimum 1000 g for 10 minutes and the serum was extracted. Serum samples were stored at nominally −70° C. until analyzed for hEPO by the Test Facility.
ELISA Assay: Human erythropoietin (hEPO) levels in sera samples were determined by ELISA kit (R&D systems, Cat #DEP-00) according to the manufactory instruction and the results were included in the Data Submission. The “shaker” protocol was used. The serum samples were diluted between 1:40 and 1:100.

| Compound | hEPO 6 Hr (ng/mL) Mean | hEPO 24 Hr (ng/mL) Mean |
| --- | --- | --- |
| CCCCOC(=O)CCCCCCC(O)CN(CCCSSCCN1CCN(CCOC(=O)CCCCN(CC(O)CCCCCCC(=O)OCC(CC)CC)CC(O)CCCCCCC(=O)OCC(CC)CC)CC1)CC(O)CCCCCCC(=O)OCCCC (centres unmarked) [Compound 6, Dibutyl 9,9′-((3-((2-(4-(2-((5-(bis(9-(2-ethylbutoxy)-2-hydroxy-9-oxononyl)amino)-pentanoyl)oxy)ethyl)piperazin-1-yl)ethyl)disulfaneyl)propyl)azanediyl)bis(8-hydroxynonanoate)] | 8.72 ng/mL | 8.90 ng/mL |
| CCCCOC(=O)CCCCCCC(O)CN(CCCCSSCCN1CCN(CCOC(=O)CCCCN(CC(O)CCCCCCC(=O)OCC(CC)CC)CC(O)CCCCCCC(=O)OCC(CC)CC)CC1)CC(O)CCCCCCC(=O)OCCCC (centres unmarked) [Compound 12] | 8.06 ng/mL | 4.86 ng/mL |
| CCC(CC)COC(=O)CCCCCCC(O)CN(CCCC(=O)OCCN1CCN(CCSSCCCN(CC(O)CCCCCCC(=O)OCCC(C)C)CC(O)CCCCCCC(=O)OCCC(C)C)CC1)CC(O)CCCCCCC(=O)OCC(CC)CC (centres unmarked) [Compound 29, Bis(2-ethylbutyl) 9,9′-((4-(2-(4-(2-((3-(bis(2-hydroxy-9-(isopentyloxy)-9-oxononyl)-amino)propyl)disulfaneyl)ethyl)piperazin-1-yl)ethoxy)-4-oxobutyl)azanediyl)bis(8-hydroxynonanoate)] | 10.01 ng/mL | 4.93 ng/mL |
| CCCCOC(=O)CCCCCCC(O)CN(CCCC(=O)OCCN1CCN(CCSSCCCN(CC(O)CCCCCCC(=O)OCC(CC)CC)CC(O)CCCCCCC(=O)OCC(CC)CC)CC1)CC(O)CCCCCCC(=O)OCCCC (centres unmarked) [Compound 42, Dibutyl 9,9′-((5-(2-(4-(2-((4-(bis(9-(2-ethylbutoxy)-2-hydroxy-9-oxononyl)amino)propyl)disulfaneyl)ethyl)piperazin-1-yl)ethoxy)-4-oxobutyl)azanediyl)bis(8-hydroxynonanoate)] | 9.07 ng/mL | 3.06 ng/mL |
| CCC(CC)COC(=O)CCCCCCC(O)CN(CCCSSCCN1CCN(CCOC(=O)CCCN(CC(O)CCCCC(=O)OCCC(C)C)CC(O)CCCCC(=O)OCCC(C)C)CC1)CC(O)CCCCCCC(=O)OCC(CC)CC (centres unmarked) [Compound 45, Bis(2-ethylbutyl) 9,9′-((3-((2-(4-(2-((4-(bis(2-hydroxy-7-(isopentyloxy)-7-oxoheptyl)amino)-butanoyl)oxy)ethyl)piperazin-1-yl)ethyl)disulfaneyl)propyl)azanediyl)bis(8-hydroxynonanoate)] | 8.33 ng/mL | 3.99 ng/mL |
| CCC(CC)COC(=O)CCCCCCC(O)CN(CCCSSCCN1CCN(CCOC(=O)CCCN(CC(O)CCCC(=O)OC(CC)CC)CC(O)CCCC(=O)OC(CC)CC)CC1)CC(O)CCCCCCC(=O)OCC(CC)CC (centres unmarked) [Compound 46, Bis(2-ethylbutyl) 9,9′-((3-((2-(4-(2-((4-(bis(2-hydroxy-6-oxo-6-(pentan-3-yloxy)hexyl)-amino)butanoyl)oxy)ethyl)piperazin-1-yl)ethyl)disulfaneyl)propyl)azanediyl)bis(8-hydroxynonanoate)] | 12.38 ng/mL | 5.78 ng/mL |
| CCC(CC)COC(=O)CCCCCCC(O)CN(CCCC(=O)OCCN1CCN(CCSSCCCCN(CC(O)CCCCC(=O)OCC(CC)CC)CC(O)CCCCC(=O)OCC(CC)CC)CC1)CC(O)CCCCCCC(=O)OCC(CC)CC (centres unmarked) [Compound 50, Bis(2-ethylbutyl) 9,9′-((4-(2-(4-(2-((4-(bis(7-(2-ethylbutoxy)-2-hydroxy-7-oxoheptyl)amino)-butyl)disulfaneyl)ethyl)piperazin-1-yl)ethoxy)-4-oxobutyl)azanediyl)bis(8-hydroxynonanoate)] | 14.94 ng/mL | 8.87 ng/mL |
| CCC(CC)COC(=O)CCCCCCC(O)CN(CCCCC(=O)OCCN1CCN(CCSSCCCCN(CC(O)CCCCC(=O)OCC(CC)CC)CC(O)CCCCC(=O)OCC(CC)CC)CC1)CC(O)CCCCCCC(=O)OCC(CC)CC (centres unmarked) [Compound 51, Bis(2-ethylbutyl) 9,9′-((5-(2-(4-(2-((4-(bis(7-(2-ethylbutoxy)-2-hydroxy-7-oxoheptyl)amino)-butyl)disulfaneyl)ethyl)piperazin-1-yl)ethoxy)-5-oxopentyl)azanediyl)bis(8-hydroxynonanoate)] | 16.39 ng/mL | 9.03 ng/mL |
| CCCCOC(=O)CCCCCCC(O)CN(CCCCC(=O)OCCN1CCN(CCSSCCCCN(CC(O)CCCCCCC(=O)OCC(CC)CC)CC(O)CCCCCCC(=O)OCC(CC)CC)CC1)CC(O)CCCCCCC(=O)OCCCC (centres unmarked) [Compound 53, Dibutyl 9,9′-((5-(2-(4-(2-((4-(bis(9-(2-ethylbutoxy)-2-hydroxy-9-oxononyl)amino)-butyl)disulfaneyl)ethyl)piperazin-1-yl)ethoxy)-5-oxopentyl)azanediyl)bis(8-hydroxynonanoate)] | 9.07 ng/mL | 4.66 ng/mL |
| CCC(CC)COC(=O)CCCCCCC(O)CN(CCCCSSCCN1CCN(CCOC(=O)CCCN(CC(O)CCCCC(=O)OCC(CC)CC)CC(O)CCCCC(=O)OCC(CC)CC)CC1)CC(O)CCCCCCC(=O)OCC(CC)CC (centres unmarked) [Compound 57, Bis(2-ethylbutyl) 9,9′-((4-((2-(4-(2-((4-(bis(7-(2-ethylbutoxy)-2-hydroxy-7-oxoheptyl)amino)butanoyl)oxy)ethyl)piperazin-1-yl)ethyl)disulfaneyl)butyl)azanediyl)bis(8-hydroxynonanoate)] | 13.33 ng/mL | 8.19 ng/mL |
| CCCCOC(=O)CCCCCCC(O)CN(CCCCC(=O)OCCN1CCN(CCSSCCCN(CC(O)CCCCC(=O)OC(C)C)CC(O)CCCCC(=O)OC(C)C)CC1)CC(O)CCCCCCC(=O)OCCCC (centres unmarked) [Compound 78] | 7.05 ng/mL | 3.30 ng/mL |
| CCC(CC)COC(=O)CCCCC(O)CN(CCCSSCCN1CCN(CCOC(=O)CCCN(CC(O)CCCCC(=O)OCC(CC)CC)CC(O)CCCCC(=O)OCC(CC)CC)CC1)CC(O)CCCCC(=O)OCC(CC)CC (centres unmarked) [Compound 92, Bis(2-ethylbutyl) 7,7′-((3-((2-(4-(2-((4-(bis(7-(2-ethylbutoxy)-2-hydroxy-7-oxoheptyl)amino)butanoyl)oxy)ethyl)piperazin-1-yl)ethyl)disulfaneyl)propyl)azanediyl)bis(6-hydroxyheptanoate)] | 13.11 ng/mL | 5.75 ng/mL |
| CCCCC/C=C\C/C=C\CCCCCCCCC(CCCCCCCC/C=C\C/C=C\CCCCC)OC(=O)CCCN(C)C [MC3, reference compound] | 3.94 ng/mL | 2.44 ng/mL |
